From ChEMBL document CHEMBL4308867, “Discovery of naldemedine: A potent and orally available opioid receptor antagonist for treatment of opioid-induced adverse effects” (Bioorg Med Chem Lett, 2019)

Tests used:
[1] = Stability in plasma (unknown origin) assessed as parent compound remaining after 24 hrs; format: ADME, cell-free; conditions: read-out: Stability
Mu-type opioid receptor [2] = biological target: T1, Mu-type opioid receptor (Homo sapiens, UniProt P35372); test: Displacement of [3H]-DAMGO from recombinant human mu-opioid receptor expressed in CHOK1 cells; format: cell-based
T1 sequence (P35372 whole entry): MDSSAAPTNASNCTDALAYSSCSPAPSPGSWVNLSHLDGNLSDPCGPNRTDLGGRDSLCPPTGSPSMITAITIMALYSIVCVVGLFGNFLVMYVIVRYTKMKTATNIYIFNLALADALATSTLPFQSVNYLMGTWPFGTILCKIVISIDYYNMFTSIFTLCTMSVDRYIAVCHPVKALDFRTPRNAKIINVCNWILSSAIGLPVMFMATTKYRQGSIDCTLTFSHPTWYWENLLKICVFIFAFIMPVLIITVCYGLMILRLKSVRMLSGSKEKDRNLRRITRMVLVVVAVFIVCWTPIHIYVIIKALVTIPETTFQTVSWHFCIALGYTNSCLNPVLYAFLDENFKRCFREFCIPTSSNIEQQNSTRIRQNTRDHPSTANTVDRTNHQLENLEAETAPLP

[3] = Chemical stability of the compound; format: physicochemical
[4] = Total clearance in rat at 1 mg/kg, po administered as cassette dose; format: ADME, organism-based; conditions: in vivo
[5] = biological target: T2, Delta-type opioid receptor (Homo sapiens, UniProt P41143); test: Displacement of [3H]-DADLE from recombinant human delta-opioid receptor expressed in HEK293 cells; format: cell-based
T2 sequence (P41143 whole entry): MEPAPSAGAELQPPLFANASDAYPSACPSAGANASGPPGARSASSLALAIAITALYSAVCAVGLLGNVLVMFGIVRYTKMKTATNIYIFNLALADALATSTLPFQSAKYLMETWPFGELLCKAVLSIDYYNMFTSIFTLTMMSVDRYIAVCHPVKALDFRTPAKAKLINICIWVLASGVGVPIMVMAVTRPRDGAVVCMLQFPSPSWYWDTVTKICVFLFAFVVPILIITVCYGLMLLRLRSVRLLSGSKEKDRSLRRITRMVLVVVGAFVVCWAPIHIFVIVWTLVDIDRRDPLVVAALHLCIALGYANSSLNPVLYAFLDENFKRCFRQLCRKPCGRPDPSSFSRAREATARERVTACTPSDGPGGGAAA

[6] = Cmax in rat brain at 1 mg/kg, po administered as cassette dose; format: ADME, organism-based; parameters: dose 1 mg/kg, route oral
[7] = Oral bioavailability in rat at 1 mg/kg administered as cassette dose; format: ADME, organism-based; conditions: in vivo
[8] = Stability in human microsomes assessed as parent compound remaining at 0.5 uM measured after 0.5 hrs; format: ADME, Microsome; conditions: read-out: Stability
[9] = Brain to blood partition coefficient, Kp of the compound in rat at 1 mg/kg, po administered as cassette dose; format: ADME, organism-based
[10] = Stability in rat microsomes assessed as parent compound remaining at 0.5 uM measured after 0.5 hrs; format: ADME, Microsome; conditions: read-out: Stability
Rattus norvegicus [11] = test: Antianalgesic activity in po dosed rat assessed as inhibition of morphine-induced analgesia by tail-flick test; format: functional
Mustela putorius furo [12] = test: In vivo antagonist activity at mu-opioid receptor in po dosed ferret assessed as inhibition of morphine-induced emesis/vomiting; format: functional
[13] = Selectivity ratio of ED50 for inhibition of morphine-induced analgesia in po dosed rat to ED50 for inhibition of morphine-induced emesis/vomiting in po dosed ferret; format: functional
Rattus norvegicus [14] = test: Selectivity ratio of ED50 for inhibition of morphine-induced analgesia in po dosed rat to ED50 for inhibition of morphine-induced constipation in po dosed rat; format: functional
Mu-type opioid receptor [15] = biological target: T1, Mu-type opioid receptor; test: Antagonist activity at mu-opioid receptor (unknown origin) by [35S]-GTPgammaS binding assay; format: functional
[16] = biological target: T2, Delta-type opioid receptor; test: Antagonist activity at delta-opioid receptor (unknown origin) by [35S]-GTPgammaS binding assay; format: functional
Rattus norvegicus [17] = species on record: Rattus norvegicus; test: […]; format: functional; conditions: po
[18] = Drug metabolism assessed as formation of 14-O-acyl form and 7-acyl form mixture
Mustela putorius furo [19] = test: In vivo antagonist activity at mu-opioid receptor in sc dosed ferret assessed as inhibition of morphine-induced emesis/vomiting; format: functional
Rattus norvegicus [20] = test: In vivo antagonist activity at […] in sc dosed rat assessed as inhibition of morphine-induced constipation; format: functional

Row | SMILES | remaining at 24 h [1] [%] | Ki (Mu-type opioid receptor [2]) [nM] | Stability [3] | CL/F [4] [mL/min/kg] | Ki [5] [nM] | Cmax [6] [ng/mL] | bioavailability [7] [%] | remaining at 0.5 h, 0.5 µM [8] [%] | Kp [9] | remaining at 0.5 h, 0.5 µM [10] [%] | ED50 (Rattus norvegicus [11]) [mg/kg] | ED50 (Mustela putorius furo [12]) [mg/kg] | Ratio ED50 [13] | Ratio ED50 (Rattus norvegicus [14]) | Ke (Mu-type opioid receptor [15]) [nM] | Ke [16] [nM] | ED50 (Rattus norvegicus [17]) [mg/kg] | Drug metabolism [18] | ED50 (Mustela putorius furo [19]) [mg/kg] | ED50 (Rattus norvegicus [20]) [mg/kg]
1 | CC(C)(NC(=O)C1=C(O)[C@@H]2Oc3c(O)ccc4c3[C@@]23CCN(CC2CC2)[C@H](C4)[C@]3(O)C1)C(=O)NS(C)(=O)=O | > 80 | 93.6 | Stable | 15 | 5.5 | 0.018 | 0.77 | 104 | 0.01 | 99 |  |  |  |  |  |  |  |  |  | 
2 | O=C(Nc1ccccn1)C1=C(O)[C@@H]2Oc3c(O)ccc4c3[C@@]23CCN(CC2CC2)[C@H](C4)[C@]3(O)C1 | > 80 | 9.8 | Stable | 25 | 6.8 | 5.6 | 55 | 98 | 0.05 | 97 |  |  |  |  |  |  |  |  |  | 
3 | COC(=O)C(C)(C)NC(=O)C1=C(O)[C@@H]2Oc3c(O)ccc4c3[C@@]23CCN(CC2CC2)[C@H](C4)[C@]3(O)C1 | > 80 | 16.5 | Stable | 25 | 3.99 | 5.1 | 68 | 101 | 0.08 | 103 |  |  |  |  |  |  |  |  |  | 
4 | CC(C)NC(=O)C1=C(O)[C@@H]2Oc3c(O)ccc4c3[C@@]23CCN(CC2CC2)[C@H](C4)[C@]3(O)C1 | > 80 | 3.4 to 5.2 | Stable | 41 | 2 to 7.4 |  | 50 | 95 |  | 88 | 10.7 | 0.04 | 266 | 19 | 6.2 | 3.8 | 0.57 |  |  | 
5 | O=C(C1=C(O)[C@@H]2Oc3c(O)ccc4c3[C@@]23CCN(CC2CC2)[C@H](C4)[C@]3(O)C1)N1CCCC1 | > 80 | 4 | Stable | 102 | 7.4 | 3 | 18 | 99 | 0.22 | 24 |  |  |  |  |  |  |  |  |  | 
6 | O=C(O)c1ccc2c3c([nH]c2c1Cl)[C@@H]1Oc2c(O)ccc4c2[C@@]12CCN(CC1CC1)[C@H](C4)[C@]2(O)C3 |  | 19 |  | 18.1 | 1 | 0.032 | 0.2 | 97 | 0.03 | 100 |  |  |  |  |  |  |  |  |  | 
7 | Cc1n[nH]c2c1C[C@@]1(O)[C@H]3Cc4ccc(O)c5c4[C@@]1(CCN3CC1CC1)[C@H]2O5 |  | 24 |  | 199 | 1.2 | 2.2 | 26.9 | 98 | 0.25 | 81 |  |  |  |  |  |  |  |  |  | 
8 | O=C(NCc1ccccc1)C1=C(O)[C@@H]2Oc3c(O)ccc4c3[C@@]23CCN(CC2CC2)[C@H](C4)[C@]3(O)C1 | > 80 | 1.1 | Stable | 61 | 16 | 12 | 46 | 94 | 0.17 | 14 |  |  |  |  |  |  |  |  |  | 
9 | CC(=O)C1=C(O)[C@@H]2Oc3c(O)ccc4c3[C@@]23CCN(CC2CC2)[C@H](C4)[C@]3(O)C1 | < 20 | 0.95 |  | 233 | 31 | 5.8 | 4 | 95 | 1.1 | 80 |  |  |  |  |  |  |  | Metabolite detected |  | 
10 | Cc1noc(C(C)(C)NC(=O)C2=C(O)[C@@H]3Oc4c(O)ccc5c4[C@@]34CCN(CC3CC3)[C@H](C5)[C@]4(O)C2)n1 | > 80 | 7.3 | Stable | 29 | 5.8 | 0.29 | 11 | 92 | 0.04 | 99 |  |  |  |  |  |  |  |  |  | 
11 | O=C(O)c1ccc2c3c([nH]c2c1)[C@@H]1Oc2c(O)ccc4c2[C@@]12CCN(CC1CC1)[C@H](C4)[C@]2(O)C3 |  | 18 |  | 71.8 | 0.62 | 0.023 | 0.1 | 98 | 0.03 | 97 |  |  |  |  |  |  |  |  |  | 
12 | N#Cc1ccc(NC(=O)C2=C(O)[C@@H]3Oc4c(O)ccc5c4[C@@]34CCN(CC3CC3)[C@H](C5)[C@]4(O)C2)cc1 | > 80 | 5.1 | Stable | 8.5 | 11.1 | 1.3 | 12 | 103 | 0.03 | 92 |  |  |  |  |  |  |  |  |  | 
13 | CCC(=O)C1=C(O)[C@@H]2Oc3c(O)ccc4c3[C@@]23CCN(CC2CC2)[C@H](C4)[C@]3(O)C1 | < 20 | 1.4 |  | 313 | 9.9 | 6.5 | 6.4 | 85 | 1.7 | 46 |  |  |  |  |  |  |  | Metabolite detected |  | 
14 | C[C@H](CO)NC(=O)C1=C(O)[C@@H]2Oc3c(O)ccc4c3[C@@]23CCN(CC2CC2)[C@H](C4)[C@]3(O)C1 | > 80 | 19.4 | Stable | 27 | 18 | 0.21 | 3.4 |  | 0.05 |  |  |  |  |  |  |  |  |  |  | 
15 | COC(=O)C1(NC(=O)C2=C(O)[C@@H]3Oc4c(O)ccc5c4[C@@]34CCN(CC3CC3)[C@H](C5)[C@]4(O)C2)CC1 | > 80 | 1.6 | Stable | 30 | 9.8 | 1.3 | 11 | 100 | 0.06 | 103 | > 100 | 0.026 | >3846 | >175 | 4.1 | 7.6 | 0.57 |  |  | 
16 | C[N@+]1(CC2CC2)CC[C@]23c4c5ccc(O)c4O[C@H]2C(=O)CC[C@@]3(O)[C@H]1C5.[Br-] [METHYLNALTREXONE BROMIDE] |  |  |  |  |  |  |  |  |  |  |  |  |  |  | 56 | 1080 |  |  | 0.69 | 4.5
17 | CC(C)(NC(=O)C1=C(O)[C@@H]2Oc3c(O)ccc4c3[C@@]23CCN(CC2CC2)[C@H](C4)[C@]3(O)C1)C(=O)O | > 80 | 46.1 | Stable | 28 | 11.8 | 0.055 | 0.52 |  | 0.04 |  |  |  |  |  |  |  |  |  |  | 
18 | O=C(Nc1ccc2cc[nH]c2c1)C1=C(O)[C@@H]2Oc3c(O)ccc4c3[C@@]23CCN(CC2CC2)[C@H](C4)[C@]3(O)C1 | > 80 | 2.4 | Stable | 28 | 18.9 | 0.56 | 13 | 93 | 0.04 | 86 |  |  |  |  |  |  |  |  |  | 
19 | O=C(Nc1ccccc1)C1=C(O)[C@@H]2Oc3c(O)ccc4c3[C@@]23CCN(CC2CC2)[C@H](C4)[C@]3(O)C1 | > 80 | 1 to 4.1 | Stable | 36 | 6.8 to 20 |  | 57 | 89 |  | 78 | 16.5 | 0.04 | 413 | 17 | 3.2 | 3.6 | 0.99 |  |  | 
20 | CC(C)(NC(=O)C1=C(O)[C@@H]2Oc3c(O)ccc4c3[C@@]23CCN(CC2CC2)[C@H](C4)[C@]3(O)C1)c1nc(-c2ccccc2)no1 [NALDEMEDINE] | > 80 | 1.1 to 1.13 | Stable | 20 | 0.91 | 1.3 | 29 | 73 | 0.03 | 76 | > 30 | 0.03 | >1000 | >500 | 0.05 | 0.37 | 0.03 |  |  | 
21 | Cc1nc(N)nc2c1C[C@@]1(O)[C@H]3Cc4ccc(O)c5c4[C@@]1(CCN3CC1CC1)[C@H]2O5 |  | 8.6 |  | 220 | 2.1 | 4.6 | 42.5 | 92 | 0.31 | 58 |  |  |  |  |  |  |  |  |  | 
